Measured values: US12384825B2, “Monomeric peptide multi-agonist targeting the GLP1 receptor and NPY receptors” (Syracuse University, priority 2019, dated 2025)
“Also recorded” adds a separate entry of the source. Where no end group is shown, it is not given here. [ ]: non-standard residue; d: D form. Lys(N3) = [N-]=[N+]=NCCCC[C@H](N)C(=O)O

Assays:
human NPY1-R = molecular target: T1, human NPY1-R (Homo sapiens, UniProt P25929); test: FRET assay at Y1-R, mitigation of adenosine stimulated cAMP at the A2b receptor (EPAC2/H188, HEK293); format: cell-based; details: cells expressing Y1-R, partial antagonist
T1 construct: host or cells: HEK293 (H188 FRET reporter)
T1 sequence (P25929 1-384): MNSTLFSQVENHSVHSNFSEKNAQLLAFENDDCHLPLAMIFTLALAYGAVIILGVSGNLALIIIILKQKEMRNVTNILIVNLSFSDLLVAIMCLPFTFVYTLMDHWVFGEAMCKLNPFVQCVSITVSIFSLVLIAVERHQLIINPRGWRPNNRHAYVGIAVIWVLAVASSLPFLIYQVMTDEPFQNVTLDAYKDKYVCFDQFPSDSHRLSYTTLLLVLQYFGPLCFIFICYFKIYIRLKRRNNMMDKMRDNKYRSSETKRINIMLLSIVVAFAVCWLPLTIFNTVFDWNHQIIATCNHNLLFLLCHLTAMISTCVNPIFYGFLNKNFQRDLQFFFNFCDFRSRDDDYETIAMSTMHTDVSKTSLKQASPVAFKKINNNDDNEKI

human NPY2-R = molecular target: T2, human NPY2-R (Homo sapiens, UniProt P49146); test: FRET assay at Y2-R, mitigation of adenosine stimulated cAMP at the A2b receptor (EPAC2/H188, HEK293); format: cell-based
T2 construct: host or cells: HEK293 (H188 FRET reporter)
T2 sequence (P49146 1-381): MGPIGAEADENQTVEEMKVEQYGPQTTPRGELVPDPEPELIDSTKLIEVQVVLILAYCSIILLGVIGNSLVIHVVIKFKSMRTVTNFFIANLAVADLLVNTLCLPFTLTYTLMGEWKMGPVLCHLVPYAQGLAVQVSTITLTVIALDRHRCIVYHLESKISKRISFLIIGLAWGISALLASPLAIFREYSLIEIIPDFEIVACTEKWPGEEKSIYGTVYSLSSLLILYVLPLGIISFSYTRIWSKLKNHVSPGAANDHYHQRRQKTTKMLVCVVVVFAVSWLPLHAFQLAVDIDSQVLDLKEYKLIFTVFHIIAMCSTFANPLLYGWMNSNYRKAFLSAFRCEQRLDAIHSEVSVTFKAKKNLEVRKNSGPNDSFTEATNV

[1] = Dose escalation study, food intake in rats; format: in vivo, rat
Procedure: Dose Escalation Study. Lean Sprague Dawley rats (350 g) were individually housed in cages capable of recording food intake (Accuscan Diet cages). The animal room was maintained on a 12-h light/12-hour dark cycle. The study design consisted of sequential rounds of a 2-day baseline phase, a 2-day treatment phase, and a 2-day washout phase. Body weight was assessed daily just prior to the start of the dark cycle, food and kaolin intake were available ad libitum and consumption was continuously recorded. Treatment doses were administered just prior to the start of the dark cycle via subcutaneous injection.

[2] = 5-day treatment in diet-induced obese (DIO) rats; format: in vivo, rat; details: diet-induced obese Sprague-Dawley rats, 10 nmol/kg once daily, 5 d
Excerpt: Diet Induced Obese (DIO) rats. To generate DIO rats, young (4-wk of age) lean male Sprague Dawley rats (Charles River Laboratories, Inc. Wilmington, MA; strain code 001) were placed on a high fat diet (HFD; D12492, 60% kcal from fat, Research Diets, New Brunswick, NJ) for 4-5 months prior to the start of the experiments to attain >20% of body fat. During this time, animals had ad libitum access to food and water.
5-day Treatment in DIO rats. DIO Sprague Dawley rats (2 cohorts; 826.1 g n=9, and 642.3 g n=5) were individually housed and the animal room was maintained on a 12-h light/12-hour dark cycle. During the 5-day baseline phase, animals were administered vehicle (0.9% sterile saline solution, injectable) injections just prior to the start of the dark cycle. At the end of the baseline phase, animals were grouped based on body weight, average daily body weight gain, and food intake. […] Throughout the experiment, body weight and food intake (via hopper weighs) were assessed daily just prior to the start of the dark cycle. Fasting blood glucose was tested prior to the baseline phase and at the end of the treatment phase via handheld glucometer (One Tough Ultra).

human GLP-1R = human GLP-1R (Homo sapiens, UniProt P43220); test: FRET reporter assay tracking cAMP stimulation at the GLP-1R (EPAC2/H188 sensor, HEK293 cells); format: cell-based; details: FIG. 7
Chain of human GLP-1R (P43220 24-463): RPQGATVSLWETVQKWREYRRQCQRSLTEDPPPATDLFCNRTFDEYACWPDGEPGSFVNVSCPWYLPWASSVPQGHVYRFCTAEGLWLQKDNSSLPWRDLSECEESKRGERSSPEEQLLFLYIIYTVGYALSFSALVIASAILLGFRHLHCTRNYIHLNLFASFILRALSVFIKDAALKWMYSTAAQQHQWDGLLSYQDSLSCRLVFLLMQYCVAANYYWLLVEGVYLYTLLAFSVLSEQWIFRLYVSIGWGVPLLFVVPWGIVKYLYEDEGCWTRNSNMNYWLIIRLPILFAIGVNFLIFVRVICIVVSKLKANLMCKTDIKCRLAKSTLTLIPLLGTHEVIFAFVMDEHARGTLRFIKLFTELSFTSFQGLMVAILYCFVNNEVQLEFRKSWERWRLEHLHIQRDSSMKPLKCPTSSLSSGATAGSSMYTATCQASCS

rat pancreatic islets = test: Static glucose stimulated insulin secretion (GSIS) in rat islets; format: cell-based; details: 10 mM glucose, 50 nM peptides
Procedure: Rat islet isolation and culture. Islets were harvested from Sprague-Dawley rats (approximately 250 g; Charles River) and anesthetized by intraperitoneal injection of pentobarbital sodium (150 mg/kg rat). Islets were prepared and purified as described^56. Islets were then cultured for 18 h in a 37° C., 5% CO2 incubator prior to the experiments in RPMI medium supplemented with 10% heat inactivated fetal bovine serum (Invitrogen). Static measurement of ISR. ISR was determined statically with multiple conditions, as described previously^57. Briefly, islets were handpicked into a petri dish containing KRB, 0.1% BSA, and 3 mM glucose and incubated at 37° C., 5% CO2 for 60 min. Subsequently, islets were picked into wells of 96-well plates containing desired amounts of glucose and agents as indicated and incubated for an additional 60 min. At the end of this period, supernatant was assayed for insulin.

[3] = Intraperitoneal glucose tolerance testing after 5-d treatment in rats; format: in vivo, rat; details: 10 nmol/kg, pre-diabetic (DIO) rats
Procedure: DIO Sprague Dawley rats (803.0±102.7 g n=7) were administered a pre-treatment IPGTT with a vehicle injection. Animals were grouped based on body weight, Lee Index (a measure of adiposity; lee index=weight1/3/nasoanal length), and baseline IPGTT blood glucose excursion. […] On treatment day 5, a repeat IPGTT was performed with the assigned treatment. All weights noted are mean±Std. Dev. Metabolic testing. Intraperitoneal glucose tolerance testing (IPGTT) was performed following a 6-h fast such that the glucose bolus occurred at the start of the dark cycle; all animal handling is performed under red light. […] A second baseline sample was obtained 30 minutes later, immediately prior to the dextrose bolus (1.5 g/kg dextrose, 20% solution). Additional blood glucose measurements were taken 7, 15, 30, 45, 60, and 120 minutes post-bolus. All blood glucose measurements were made via handheld glucometers (One Touch Ultra) in duplicate; if the variation between the two measures was >5%, a third measurement was taken.

IPGTT in shrews = format: in vivo, shrew
[4] = test system: perifused isolated rat islets; test: Cytokine-induced damage of perifused isolated rat islets (OCR, membrane permeability); format: cell-based; details: cytokines IFN-γ, TNF-α, IL-1β
Excerpt: For this evaluation, a customized perifusion system was used that both maintains islet health while continuously assessing β-cell viability by OCR.

rat islets = test: Insulin secretion rate in rat islet cell perifusion, exposure and washout; format: cell-based
human islets = test: Insulin release in human islets; format: cell-based

Compound	block of GEP44 agonism by antagonist at Y1-R (human NPY1-R)	block of GEP44 agonism by antagonist at Y2-R (human NPY2-R; FRET, cells expressing Y2-R, potent antagonist)	2-d avg. FI ([1]; 10 nmol/kg/d, rats) [%]	reduction in food intake over 2 days ([1]; 20 nmol/kg daily, lean Sprague-Dawley rats) [%]	2-d avg. FI ([1]; 30 nmol/kg/d, rats) [%]	reductions in FI ([1]; preliminary dose escalation studies, dose not stated) [%]	food intake (in words) ([1]; rats, dose escalation, 2-d on each dose)	body weight [2]	fasting blood glucose [2]	food intake [2]	signalling via the GLP-1R, cAMP production (human GLP-1R)	glucose stimulated insulin secretion (GSIS), as ISR (rat pancreatic islets)	blood glucose during intraperitoneal glucose tolerance testing, GEP44 vs Ex4 [3]	glucoregulation (IPGTT) (IPGTT in shrews)	fall in cytokine-induced OCR [4]	insulin secretion rate (ISR) (rat islets; acute exposure)	persistence of the effect on insulin secretion after washout (rat islets; exposure and washout)	insulin release in human islets (human islets)	signalling via the Y2-R, cAMP production (human NPY2-R; FIG. 7)
N=C(N)NCCC[C@H](NC(=O)CC1(CC(=O)N2CCN(C3c4ccccc4NC(=O)c4ccccc43)CC2)CCCC1)C(=O)NCCn1c(=O)n(-c2ccccc2)n(-c2ccccc2)c1=O (stereo partly shown) [BIIE0246, reference compound]	blocked GEP44 agonism	blocked GEP44 agonism	–	–	–	–	–	–	–	–	–	–	–	–	–	–	–	–	–
H[dS]QGTFTSDLS[Lys(N3)]YLEEEAVREFIAWLKNGGPSRHYLNLVTRQRY-NH2 [GEP44]	–	–	−58	−81.4	−84	> 88	robust reduction of FI; also recorded: robust reduction of food intake	sustained weight loss	reduced fasting blood glucose; also recorded: significant reduction in fasting blood glucose	reduced food intake	stimulate cAMP production	stimulated GSIS; also recorded: significantly increased	stronger reductions in blood glucose	confirmed glucoregulation	slowed the fall in cytokine-induced OCR	significantly increased	more sustained vs. Ex-4	capable of stimulating insulin release	stimulate cAMP production
